Laboratory results reported in US7119082B2, “11β-long-chain-substituted 19-nor-17α-pregna-1,3,5(10)-trien-17β-ols with a 21,16α-lactone ring” (priority 2002, dated 2006).
Like-named read-outs stand apart in the source and are kept apart here.

How the values were obtained:
[1] = test system: estrogen receptor from the rat prostate; assay: Estrogen receptor binding, rat prostate cytosol, competition with 3H-estradiol; conditions: for Rat Prostate ER (RBA): Table 1, 3H-estradiol as ligand
[2] = test system: hER β; assay: Relative binding affinity to hER β (cited from Kuiper et al.); parameters: species or system human; conditions: Table 2; quotient of the cited RBA values
Description: In this case, it is assumed that ERβ predominates in the rat prostate over ERα, and ERα predominates in the rat uterus over ERβ.

[3] = molecular target: T1, estrogen receptor from the rat uterus (Rattus norvegicus, UniProt P06211); assay: Estrogen receptor binding, rat uterus cytosol, competition with 3H-estradiol
T1 construct: The preparation of rat uterus cytosol as well as the receptor test with the estrogen-receptor-containing cytosol; from tissue; host or cells: rat uterus cytosol
T1 sequence (P06211 1-600): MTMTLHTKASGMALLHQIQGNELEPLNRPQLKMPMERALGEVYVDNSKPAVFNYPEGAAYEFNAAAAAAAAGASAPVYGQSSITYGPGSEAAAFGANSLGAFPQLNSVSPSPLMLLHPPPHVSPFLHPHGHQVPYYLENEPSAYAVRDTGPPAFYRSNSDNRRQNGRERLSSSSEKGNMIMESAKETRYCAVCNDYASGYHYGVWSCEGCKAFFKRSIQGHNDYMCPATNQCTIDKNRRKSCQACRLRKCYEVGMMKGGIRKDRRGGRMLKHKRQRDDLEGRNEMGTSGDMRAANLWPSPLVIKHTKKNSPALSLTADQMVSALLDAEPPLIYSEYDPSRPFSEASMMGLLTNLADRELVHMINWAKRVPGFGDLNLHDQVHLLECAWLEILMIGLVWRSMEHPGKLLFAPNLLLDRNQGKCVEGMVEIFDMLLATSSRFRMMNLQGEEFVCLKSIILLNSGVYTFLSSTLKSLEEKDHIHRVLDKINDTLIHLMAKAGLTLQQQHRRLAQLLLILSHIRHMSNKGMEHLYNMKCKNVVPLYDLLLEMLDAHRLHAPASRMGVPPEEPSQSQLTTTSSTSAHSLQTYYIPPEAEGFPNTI

[4] = test system: estrogen receptor from the rat uterus; assay: as above
[5] = test system: hER β; conditions: Table 2; cited from Kuiper et al. (1996), Endocrinology 138: 863-870; cited from earlier work
[6] = test system: MCF-7 breast cancer cells; assay: Cell proliferation assay, estradiol-stimulated MCF-7, crystal violet; type: cell-based; conditions: Homo sapiens, MCF7, 168 h; concentration 10^-5 M; 7 days; FIG. 1
[7] = relative binding affinity, estradiol = 100

## C[C@]12CCC3c4ccc(O)cc4CCC3C1CC[C@@H]2O (stereo partly shown) [Estradiol]
[1]; [7]
  Rat Prostate ER (RBA): 100
[1]; Table 2, relative binding affinity, estradiol = 100
  Rat prost. ER(RBA): 100

## C[C@]12CC[C@H](O)CC1=CCC1C2CC[C@@]2(C)C1CC[C@@H]2O (stereo partly shown) [5-Andros-ten-diol]
[2]
  ERβ/ERα: 3
[3]
  Rat uterus ER(RBA): 0.1
[4]; Table 2, ratio of rat ER RBA values as headed
  Uterus-ER/Prostata-ER: 50
[5]
  hER β RBA: 17
[1]
  Rat prost. ER(RBA): 5

## C[C@]12CC[C@@H]3c4ccc(O)cc4CC[C@H]3[C@@H]1C[C@@H](O)[C@@H]2O [Estriol]
[5]
  hER β RBA: 21

## CCCCCC[C@H]1C[C@@]2(C)C(C[C@H]3OC(=O)C[C@]32O)C2CCc3cc(O)ccc3C21 (stereo partly drawn) [Compound 1, 3,17β-Dihydroxy-11β-hexyl-19-nor-17α-pregna-1,3,5(10)-triene-21,16α-lactone]
[6]
  inhibition at 10 µM: 100%
[3]; Table 1, relative binding affinity, estradiol = 100, 3H-estradiol as ligand
  Rat uterus ER(RBA): 26.2
[4]; Table 1, ratio of RBA rat uterus ER to rat prostate ER
  Uterus-ER/Prostate-ER: 22
[4]; see Table 1
  Binding affinity, rat uterus ER compared with rat prostate ER (in words): higher binding affinity to the estrogen receptor from the rat uterus than to the estrogen receptor from the rat prostate
[1]; [7]
  Rat Prostate ER (RBA): 1.2
